Results published in US11040106B2, “Conjugates of kinase inhibitors and cyanine dyes” (priority 2018, dated 2021).
Entries after “also recorded” stand apart in the source; their conditions may differ. Read-outs that look alike come from different tables or passages of the source. Values belong to the compound of their own block, whether it stands above or below them.

Columns and labels:
Solubility in water = assay type: physicochemical
Description: 1-NMe2 is water soluble up until 1000 μM whereas 1-CH2 precipitates at 100 μM.

Photophysical properties = assay type: physicochemical
HSA [1] = target: T1, HSA (Homo sapiens, UniProt P02768); assay: Covalent binding / reaction of cyanines with HSA (LC/MS, ESI MS, NIR-fluorescent gel); conditions: HEPES buffer pH 7.4, 37° C.
T1 sequence (P02768 25-609): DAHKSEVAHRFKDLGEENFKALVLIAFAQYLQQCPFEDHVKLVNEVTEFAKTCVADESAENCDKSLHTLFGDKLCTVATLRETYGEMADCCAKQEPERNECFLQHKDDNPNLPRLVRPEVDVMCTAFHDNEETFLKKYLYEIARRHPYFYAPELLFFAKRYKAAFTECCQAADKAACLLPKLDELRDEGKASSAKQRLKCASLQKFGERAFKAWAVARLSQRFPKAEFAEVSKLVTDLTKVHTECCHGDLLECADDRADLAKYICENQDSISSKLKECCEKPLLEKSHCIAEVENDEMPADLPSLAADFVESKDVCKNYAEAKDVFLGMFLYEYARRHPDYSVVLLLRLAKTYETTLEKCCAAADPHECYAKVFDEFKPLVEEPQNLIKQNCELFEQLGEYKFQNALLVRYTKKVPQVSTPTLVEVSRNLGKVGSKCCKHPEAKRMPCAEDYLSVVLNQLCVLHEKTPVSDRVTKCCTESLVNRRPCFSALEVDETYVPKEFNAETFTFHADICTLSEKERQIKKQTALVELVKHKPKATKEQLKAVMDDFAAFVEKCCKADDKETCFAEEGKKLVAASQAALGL
Description: FIGS. 33A to 33D show kinetics of a, 1, c, 4, d, 5; e, 6 in 1 M HEPES buffer pH 7.4. […] The kinetics was examined on C, 18 column using Agilent 1200 series LC/MS at 600 nm.
FIGS. 34A and 34B show mass spectra of a, free HSA and b, 1 bound to HSA. HSA: 1 (2.5:1); buffer 1 M HEPES.
In a control experiment, human serum albumin (HSA) was reacted with 2.5 equivalents of 1-Cl at 37° C. in 1 M HEPES buffer. This 1-Cl:albumin molar ratio was selected because it is approximately that used in cell culture experiments to probe uptake of this dye.
To test this assertion the experimental design was modified in the following way.

U87-MG cells [2] = assay: Cytotoxicity of ICG, MHI-148 and QCy, 72 h in the dark, AlamarBlue; assay type: cell-based, human
Description: Cytotoxicity of QCy was studied using U87-MG cells (a glioblastoma multiforme line).

[3] = tested on: U87-MG glioblastoma cells; assay: Organelle localization of the fluors (confocal imaging); assay type: cell-based, human; conditions: 37° C., DMEM/F12 with 10% FBS pH 7.4; for localization after time (h) 0.5: 0.5 h; for localization after time (h) 24: 24 h
U87-MG cells [4] = assay: Uptake and colocalization of 1-Cl and 1-HSA (confocal); assay type: cell-based, human
Description: Colocalization with trackers for mitochondria, lysosome, ER and Golgi are featured. Images were taken using Zeiss confocal microscope at 60×/1.2 water immerse objective after 30 mins of incubation.
FIG. 43 are data from a set of experiments nearly identical to those in FIG. […]
Data in FIG. 42 should be compared with literature reports describing import of 1-Cl but in media containing albumin into various cells.

HSA [5] = target: T1, HSA; assay: Covalent binding / reaction of cyanines with HSA (LC/MS, ESI MS, NIR-fluorescent gel)
[6] = Photostability under LED irradiation at 780 nm; assay type: physicochemical; conditions: PBS pH 7.4, LED 780 nm
Description: Initially, equimolar concentrations (20 μM) were used; QCy was reproducibly and more robust than the other two, but the difference was more than anticipated so the experimental design was suspected.

HEPG2 cells [7] = assay: 1a in HEPG2 cells: morphology change and co-localization in organelles; assay type: cell-based
Description: FIG. 5A visualizes some of the data from FIGS. 4A and 4B (that on HEPG2 cells).
Localization of compounds in mitochondria tends to give more pronounced cytotoxicity effects than accumulation in most organelles.

[8] = tested on: U87-MG (Glioblastoma) cells as compared to HUVEC (normal cells); assay: Uptake by U87-MG cells as compared to HUVEC; assay type: cell-based, human
HEPG2 cells [9] = assay: Cytotoxicity (cell viability, MTT assay) on HEPG2 cells; assay type: cell-based; conditions: HEPG2 cells (liver cancer)
Description: Approximately 5000 HEPG2 cells/well were seeded on 96 well plate containing 10% fetal bovine serum. Cells were allowed to adhere overnight before test compounds were added. Stock solutions of 1a (0.02 M in DMSO) were diluted with protein-free medium (PFHM-II) to make desired final concentrations varying from 0.01 to 80 μM. The cells were incubated with the desired concentration for 48 h. The cell viabilities were calculated using MTT assay. Briefly, 20 μL of 3-(4,5-dimethylthiazol-2-yl)-2,5-diphenyltetrazolium bromide MTT (5 mg/mL, in Hank's balanced salt solution) were added and the cells were incubated for an additional 3.5 h. The medium was then removed, and […] of DMSO was added to dissolve the formazan crystal formed. The optical density of each well (at 570 nm) was measured with a BioTek Synergy 4 Microplate Reader. The viability of each cell line in response to the treatment with tested compounds was calculated as: % dead cells=100−(OD treated/OD control)×100.

U87-MG cells [10] = assay: Cytotoxicity (cell viability) on U87-MG cells; assay type: cell-based; conditions: for cytotoxicity compared with parent dye, parent kinase inhibitor (and their mixture): U87-MG cells (glioblastoma); for cytotoxicity compared with ICG-COOH conjugate: U87-MG, 24 and 48 h
K562 leukemia cells = assay: Cytotoxicity (cell viability) on K562 cells; assay type: cell-based
[11] = tested on: MDA-MB-231 “triple negative” breast cancer cells; assay: Cytotoxicity (cell viability) on MDA-MB-231 cells; assay type: cell-based; conditions: MDA-MB-231 (breast cancer cells)
[12] = tested on: U87-MG (Glioblastoma) cells; assay: Light and dark toxicity on U87-MG cells; assay type: cell-based, human
HUVEC = assay: Light and dark toxicity on HUVEC; assay type: cell-based; conditions: 1 h incubation, 10 minutes irradiation
Description: HUVEC cells are non-carcinogentic, “normal” […] cells.

[13] = Aggregation: concentration dependence of absorbance spectra; assay type: physicochemical; conditions: 1.25-20 μM, 10 mM pH 7.4 PBS
Description: FIGS. 37A and 37B show concentration dependence of absorbance spectra in the range 1.25-20 μM in 10 mM pH 7.4 PBS buffer a, (B) MHI-148 and b, (1) QCy.
Shoulders of that kind and indicative of H-aggregates, ie associative oligomers in which the transition moments of the monomers are not well aligned leading to […] (blue) shifts. Concentration dependences of absorbance spectra of QCy and MHI-148 (structurally the closest) were determined to explore H-aggregation further.

concentration at which it precipitates (Solubility in water): 100 µM
brightness (εmax × Φ) (Photophysical properties; 10 mM PBS buffer pH 7.4): 3689
Δλ (Stokes' shift) (Photophysical properties; 10 mM PBS buffer pH 7.4): 24 nm
εmax (Photophysical properties; 10 mM PBS buffer pH 7.4): 149940 cm^−1M^−1
λabs (Photophysical properties; 10 mM PBS buffer pH 7.4): 775 nm
λem (Photophysical properties; 10 mM PBS buffer pH 7.4): 799 nm
relative brightness (Photophysical properties; 10 mM PBS buffer pH 7.4, relative to ICG): 1.90
Φ (fluorescence quantum yield) (Photophysical properties; 10 mM PBS buffer pH 7.4, standard A (Φ = 0.13 in DMSO)): 0.025
binding to thiol-blocked HSA (TCEP, then 6-maleimide hexanoic acid) (HSA [5]; 15 μM HSA, 15 μM dye): did not bind to 1-Cl
photostability (in words) [6]: the least stable
SMILES: CC1(C)C(/C=C/C2=C(Cl)C(=C/C=C3\N(CCCCCC(=O)O)c4ccccc4C3(C)C)/CCC2)=[N+](CCCCCC(=O)O)c2ccccc21 [Compound 1]
covalent binding / reaction with HSA (HSA [1]): showed an increase in peak with HSA; also recorded: HSA is bound to 1; also recorded: binds to HSA at cysteine 34 position
covalent binding / reaction with HSA (HSA [1]; listed as 1-Cl): 1:1 covalent adduct and does combine with HSA
IC50 (U87-MG cells [2]): 19.1 ± 1.01 µM
localization after time (h) 0.5 [3]: mitochondria
localization after time (h) 24 [3]: mitochondria and lysosome
organelle colocalization after uptake (U87-MG cells [4]; 20 μM, serum free media, 30 mins, listed as 1-Cl): localized in the mitochondria; also recorded: Most colocalization is seen with the mitochondria
organelle localization after uptake (U87-MG cells [4]; media containing albumin): fluorescence was observed mostly in the mitochondria
consumption in reaction with HSA (HSA [5]; 0.5 mM HSA, 0.2 mM 1-Cl, 1 M HEPES pH 7.4, 37° C.): nearly all the 1-Cl is consumed after 72 h

SMILES: Cc1nc(Nc2ncc(C(=O)Nc3c(C)cccc3Cl)s2)cc(N2CCN(CCOC(=O)CCCCCN3C(=CC=C4CCCC(C=CC5=[N+](CCCCCC(=O)O)c6ccccc6C5(C)C)=C4Cl)C(C)(C)c4ccccc43)CC2)n1 [Compound 1a]
organelle localization (HEPG2 cells [7]; HEPG2): localizes preferentially in mitochondria
influence on cell morphology compared with dasatinib a (HEPG2 cells [7]; HEPG2, 24 and 48 h): much stronger influence on the cell morphology
uptake by U87-MG cells compared to HUVEC [8]: localizes more in U87-MG cells than HUVEC cells
cytotoxicity compared with parent dye, parent kinase inhibitor (and their mixture) (HEPG2 cells [9]): more found to be toxic than individual 1, a or a combination of 1+a; also recorded: significantly more toxic than the parent dye, the parent kinase inhibitor, or a mixture of the dye and kinase inhibitor
cytotoxicity compared with parent dye, parent kinase inhibitor (and their mixture) (U87-MG cells [10]): more found to be toxic than individual 1, a or a combination of 1+a; also recorded: significantly more toxic than the parent dye, the parent kinase inhibitor, or a mixture of the dye and kinase inhibitor
cytotoxicity compared with ICG-COOH conjugate (U87-MG cells [10]): more toxic than ICG-COOH-a

SMILES: CC(=O)c1c(C)c2cnc(Nc3ccc(N4CCN(C(=O)CCCCCN5/C(=C/C=C6\CCCC(/C=C/C7=[N+](CCCCCC(=O)[O-])c8ccccc8C7(C)C)=C6Cl)C(C)(C)c6ccccc65)CC4)cn3)nc2n(C2CCCC2)c1=O [Compound 1b]
uptake by U87-MG cells compared to HUVEC [8]: localizes more in U87-MG cells than HUVEC cells
cytotoxicity compared with parent dye, parent kinase inhibitor (and their mixture) (K562 leukemia cells): more found to be toxic than individual 1, b or a combination of 1+b; also recorded: significantly more toxic than the parent dye, the parent kinase inhibitor, or a mixture of the dye and kinase inhibitor
cytotoxicity compared with parent dye, parent kinase inhibitor (and their mixture) (HEPG2 cells [9]): more found to be toxic than individual 1, b or a combination of 1+b; also recorded: significantly more toxic than the parent dye, the parent kinase inhibitor, or a mixture of the dye and kinase inhibitor
cytotoxicity compared with parent dye, parent kinase inhibitor (and their mixture) (U87-MG cells [10]): more found to be toxic than individual 1, b or a combination of 1+b; also recorded: significantly more toxic than the parent dye, the parent kinase inhibitor, or a mixture of the dye and kinase inhibitor
cytotoxicity compared with ICG-COOH conjugate (U87-MG cells [10]): more toxic than ICG-COOH-b
cytotoxicity compared with parent dye, parent kinase inhibitor (and their mixture) [11]: more toxic than 1 and b; also recorded: more toxic than b or 1

SMILES: CC1(C)C(=CC=C2CCCC(C=CC3=[N+](CCCCCC(=O)O)c4ccc(I)cc4C3(C)C)=C2Cl)N(CCCCCC(=O)O)c2ccc(I)cc21 [Compound 2aa]
light versus dark toxicity ([12]; 1, 2, 4 and 6 h incubation, 10 mins irradiation): Light toxicity was more than light in every case
light versus dark toxicity ([12]; 1 h incubation, irradiation 5, 10, 15, 20 minutes): kills the cells more in light than in dark
uptake by U87-MG cells compared to HUVEC [8]: the cancer cells uptake more of the compound
phototoxic effect on normal cells (HUVEC): does not significantly kill normal cells

water solubility (in words) (Solubility in water): more water soluble than MHI-148
water soluble up until (concentration) (Solubility in water): ≤ 1000 µM
fluorescence quantum yield relative to ICG (Photophysical properties): about three times greater
absorbance of equimolar solutions (Photophysical properties; 5 μM, 10 mM pH 7.4 PBS): greater absorbance than ICG or MHI-148
brightness (εmax × Φ) (Photophysical properties; 10 mM PBS buffer pH 7.4): 9901
εmax (Photophysical properties; 10 mM PBS buffer pH 7.4): 192460 cm^−1M^−1
brightness compared with 1-CH2 (in words) (Photophysical properties; PBS buffer): brighter dye than 1-CH2
brightness relative to 1-CH2 (Photophysical properties; PBS, pH 7.4): 2 ×
quantum yield relative to 1-CH2 (Photophysical properties; PBS, pH 7.4): 2 ×
shift of absorbance and fluorescence maxima to shorter wavelengths (Photophysical properties; compared with ICG and 1-CH2): ~30 nm
extinction coefficient relative to 1-CH2 (Photophysical properties; in water): ~3 ×
SMILES: CC1(C)C(=CC=C2C[N+](C)(C)CC(C=CC3=[N+](CCCCCC(=O)O)c4ccccc4C3(C)C)=C2Cl)N(CCCCCC(=O)O)c2ccccc21 [QCy]
water solubility (in words) (Solubility in water; listed as 1-NMe2): significantly more soluble in water than 1-CH2
fluorescence brightness of equimolar solutions (Photophysical properties; 5 μM, 10 mM pH 7.4 PBS): markedly higher than the other two fluors
extinction coefficient compared with 1-CH2 (in words) (Photophysical properties; in PBS buffer and in water): stronger extinction coefficient than 1-CH2
IC50 (U87-MG cells [2]): > 80 µM
cytotoxicity (in words) (U87-MG cells [2]): not very toxic until 80 μM
aggregation (H-aggregates) in aqueous media [13]: less prone to aggregation in aqueous media than MHI-148; also recorded: considerably less aggregated than MHI-148
localization after time (h) 0.5 [3]: golgi
localization after time (h) 24 [3]: lysosome and ER
photostability (in words) [6]: almost no decomposition after 1 h continuous illumination; also recorded: the most photostable
photostability (in words) ([6]; listed as 1-NMe2): more stable than 1-CH2; also recorded: significantly more photostable than 1-CH2 or ICG
